In paper PMC11062906 (Nature, 2024):
“Also recorded” adds a separate entry of the source.

What was measured:
[1] = target: T1, BmGr9 (Bombyx mori, UniProt B3GTD7); assay: Cell-based GCaMP calcium flux assay, wild-type BmGr9
[2] = target: T1, BmGr9; assay: Intrinsic tryptophan fluorescence of detergent-solubilized purified BmGr9; format: binding
[3] = target: T1, BmGr9; conditions: electrophysiology; ref Sato et al. PNAS, 2011; cited from earlier work
[4] = tested on: BmGr9 Q443, F444, and Q445 mutants; assay: GCaMP assay, L-sorbose on BmGr9 Q443, F444 and Q445 mutants; format: cell-based, Bombyx mori; conditions: author rebuttal

T1 sequence (B3GTD7 entry or part of it): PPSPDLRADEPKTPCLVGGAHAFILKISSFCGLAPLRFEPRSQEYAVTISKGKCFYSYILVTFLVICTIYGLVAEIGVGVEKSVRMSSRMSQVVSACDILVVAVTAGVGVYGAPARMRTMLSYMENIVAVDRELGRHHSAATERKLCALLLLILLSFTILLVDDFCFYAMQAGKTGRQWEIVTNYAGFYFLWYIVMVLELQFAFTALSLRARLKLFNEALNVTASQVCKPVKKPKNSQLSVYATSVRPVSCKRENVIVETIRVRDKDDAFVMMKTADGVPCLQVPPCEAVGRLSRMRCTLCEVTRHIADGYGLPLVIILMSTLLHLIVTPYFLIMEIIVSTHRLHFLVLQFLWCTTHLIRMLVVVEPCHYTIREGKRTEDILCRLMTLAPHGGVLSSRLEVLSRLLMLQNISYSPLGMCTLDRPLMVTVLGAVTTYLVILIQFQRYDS

SMILES	Activation of BmGr9 (change in fluorescence) by sweet compound ([1]; 100 mM sweet compound, HEK293 cells with BmGr9 plus GCaMP vs GCaMP only)	maximum activity in dose-response ([1]; titration, n = 5, vs GCaMP-only control wells)	Kd ([2]; KD (apparent affinity, tryptophan fluorescence), purified BmGr9 in digitonin, n = 4, 95% CI in parentheses)	KD (apparent affinity, tryptophan fluorescence) ([2]; purified BmGr9 in digitonin, n = 4, 95% CI in parentheses)	activation of BmGr9 in oocytes [3]	activation of BmGr9 mutants by L-sorbose [4]	blue shift in the tryptophan fluorescence emission spectrum ([2]; titration of purified BmGr9)
O=C(CO)[C@@H](O)[C@H](O)[C@@H](O)CO [L-sorbose]	not statistically different than GCaMP alone; also recorded: did not activate BmGr9 significantly	less than control wells with GCaMP only	63 mM	affinity close to that of D-fructose	not to activate	does not appear that L-sorbose can activate any of these BmGr9 mutants	–
OC[C@H]1O[C@@](CO)(O[C@H]2O[C@H](CO)[C@@H](O)[C@H](O)[C@H]2O)[C@@H](O)[C@@H]1O [sucrose]	–	–	–	–	–	–	did not induce a shift
